How the values were obtained:
[1] = test system: wild-type (WT) HEK293 cells; assay: Pink Flamindo cAMP assay control in wild-type HEK293 cells lacking μORs; type: cell-based; settings: compound 1 μM, AUC analysis, n = 3
[2] = test system: μOR; settings: cited from earlier work

Compound	effect on cAMP accumulation in the absence of the hμOR [1]	EC100 [2] [nM]
C=C(C)[C@@H]1CCC(C)=C[C@H]1c1c(O)cc(CCCCC)cc1O [JGC1, (1′R,2′R)-5′-Methyl-4-pentyl-2′-(prop-1-en-2-yl)-1′,2′,3′,4′-tetrahydro-[1,1′-biphenyl]-2,6-diol]	do not impact cAMP accumulation	–
[D-Ala,[2] N-MePhe,[4] Gly-ol]-enkephalin [DAMGO]	–	250
